The numbers were not newly measured in patent US20120149888A1, “SYNTHESIS OF ARA-2'-O-METHYL-NUCLEOSIDES, CORRESPONDING PHOSPHORAMIDITES AND OLIGONUCLEOTIDES INCORPORATING NOVEL MODIFICATIONS FOR BIOLOGICAL APPLICATION IN THERAPEUCTICS, DIAGNOSTICS, G- TETRAD FORMING OLIGONUCLEOTIDES AND APTAMERS” (priority 2009, published 2012), which cites them from elsewhere.

Entries after “also recorded” stand apart in the source; their conditions may differ. Where two headings read alike, the source gives them in different places.

As usually defined, the Ki is a dissociation constant, usually derived from enzyme kinetics or from competition with a known ligand. What is called IC50 is the midpoint of a concentration-inhibition curve.

Data set [1] addresses nucleoside transport (thymidine uptake). The following applies: for Ki: read-out: Ki value for inhibition of thymidine uptake.
Data set [2] deals with explants of intact rat colonic mucosa.
The next data set relates to P815/FU. The following applies: 5-Fluorouracil-resistant P815/FU.
Another data set relates to L1210/CA. The following applies: 1β-D-Arabinofuranosylcytosine-resistant L1210/CA.
Data set [3] relates to equilibrative NBMPR-sensitive nucleoside transporter (es). The following applies: growth-inhibitory concentrations.
Data set [4] has as its system ara-C-resistant neoplasms.
The subject of data set [5] is Ehrlich ascites resistant to 5-fluorodeoxyuridine (FUdR). The following applies: 5-Fluorodeoxyuridine-resistant Ehrlich ascites.
For data set [6] the following is noted: in vivo.
Another data set concerns ovarian cancer. The following applies: previously treated patients.
The conditions of data set [7]: rhesus monkey, in vivo.
In the next data set the test system is Ehrlich ascites (AZU 1). The following applies: 6-Azauracil-resistant Ehrlich ascites (AZU 1).
A further data set concerns mouse leukemia L1210. The following applies: L1210 cells.
The test system of data set [8] is human nasopharyngeal KB cells.
Data set [9] has as its system 36 human tumor cell lines.
For data set [10], the system named is 11 human tumor xenografts. The following applies: 11 xenografts.
The subject of a further data set is Ehrlich ascites (EAC-R2). The following applies: 6-Methyl thiopurine ribonucleoside-resistant Ehrlich ascites (EAC-R2).
Where [11] appears, read: 6-Mercaptopurine-resistant L1210/MP(III).
Where [12] appears, read: Thioguanine-resistant L1210 TG/R.
The mark [13] stands for this setting: 5-Fluorouracil-resistant P815-E176.

As for `OCCN(CCO)c1nc(N2CCCCC2)c2nc(N(CCO)CCO)nc(N3CCCCC3)c2n1` [dipyridamole], in data set [1], the Ki was 280 nM. For the same molecule, the “reduction of the LC90 of nolatrexed” value with L1210 cells (absence of salvageable thymidine) was “> threefold”. Also, the “incorporation of tritiated TdR into DNA” value in data set [2] is on record as “reduced”.
For the molecule `Nc1nc(=O)n([C@@H]2O[C@H](CO)[C@@H](O)[C@@H]2O)cc1F` [Ara-FC, 1β-D-arabinofuranosyl-5-fluorocytosine], the “Response to chemotherapeutic drugs: Same as parent line” value (“Response … as parent line” for short) was “Ara-FC” in the data set on P815/FU and “retained the same sensitivity” in the data set with P815/FU (listed as ara-FC).
For `CCOC(=O)NO` [Hydroxycarbamic Acid ethyl ester], in the data set with L1210/CA, the “Response … as parent line” value is “Hydroxycarbamic”.
As for `Cc1cn([C@H]2C[C@H](O)[C@@H](CO)O2)c(=O)[nH]c1=O` [TdR, Thymidine], in data set [3], the expression of es entry is recorded as “no significant effect”.
Regarding `COC(COC(N)=O)C1=C(N2CC2)C(=O)C(C)=C(N2CC2)C1=O` (stereo not shown) [Carbazilquinone], in data set [4] (in vivo), the “cross-resistance of ara-C-resistant neoplasms to the drug” value (from here on “cross-resistance”) was “no cross-resistance”. Also, the “Response to chemotherapeutic drugs: collaterally sensitive” value (shortened to “Response … collaterally sensitive”) in the data set with L1210/MP(III) (mouse, in vivo) is recorded as “collateral sensitivity; also recorded: Carbazilquinone”. Besides, the “Response … as parent line” value in the data set with L5178Y/ara-C (in vivo) is “Carbazilquinone”.
For `O=c1[nH]c(=O)n([C@H]2C[C@H](O)[C@@H](CO)O2)cc1C(F)(F)F` [Compound F3TdR, 5-trifluoromethyl-2′-deoxyuridine], in data set [5], the “Response to chemotherapeutic drugs: Cross-resistant” value (shortened to “Response … Cross-resistant”) is given as “cross-resistant; also recorded: F3TdR”.
For the molecule `N[C@@H](Cc1ccc(N(CCCl)CCCl)cc1)C(=O)O` [L-PAM, L-phenylalanine mustard methanol], the “Response … collaterally sensitive” value is recorded as “L-PAM” in the data set on L1210 TG/R (mouse, in vivo) and “L-PAM” in the data set on P815-E176 (in vivo).
Consider `[N-]=[N+]=CC(=O)OC[C@H](N)C(=O)O` [azaserine], for which the “Response … collaterally sensitive” value with L1210/MP(III) (setting [11]) is reported as “collaterally sensitive”. For the same molecule, the “Response … as parent line” value is given as “not altered; also recorded: azaserine” in the data set on L1210 TG/R (setting [12]) and “Azaserine” in the data set with P815-E176 (setting [13]).
With `NC(=O)c1csc([C@@H]2O[C@H](CO)[C@@H](O)[C@H]2O)n1` [tiazofurin, 2-B-D-Ribofuranosylthiazole-4-Carboxamide], in [6], the antitumor activity entry is “No antitumor activity was observed”; the dose limiting toxicities result is “pericarditis and clinical symptoms suggestive of a more generalized serositis”; the maximally tolerated dose is reported as 1650 mg/m2; the “patients with sustained depletion of guanine nucleotide pools” value is listed as 1 of 6.
As to gemcitabine-cisplatin, in the data set on ovarian cancer, the “response, doublets” value is 53%.
As for `CN(Cc1cnc2nc(N)[nH]c(=O)c2n1)c1c(Cl)cc(C(=O)NC(CCC(=O)O)C(=O)O)cc1Cl` (stereo not shown) [DCM, 3′,5′-dichloromethopterin], the “Response … as parent line” value with L1210/CA is given as “DCM”.
Take `C[C@@]1(CO)[C@H](O)CC[C@@]2(C)[C@H]1CC[C@H]1C[C@@H]3C[C@@]12CC[C@]3(O)CO` [aphidicolin]: in [3], the expression of es result was “no significant increase”.
Consider `COc1ccc(CNc2nc(N(CCO)CCO)nc3c(NCc4ccc(OC)cc4)nc(N(CCO)CCO)nc23)cc1` [NU3076], for which the “inhibition of thymidine uptake in the presence of AGP” value in data set [1] (AGP 5 mg ml(−1)) is reported as “not significantly affected”. Moreover, the Ki in data set [1] is 100 nM. In the data set on L1210 cells, the FU cytotoxicity entry is given as “significant potentiation” and the “reduction of the LC90 of nolatrexed” value is “> threefold”.
In the case of `COCC(COc1nc(N2CCCCC2)c2nc(OCC(COC)OC)nc(N3CCCCC3)c2n1)OC` (stereo not shown) [NU3059], in the data set on L1210 cells (analogue 10 microM), the “growth inhibitory activity of the TS inhibitor CB3717” value is recorded as “enhance”.
Regarding `Nc1nc(N)c2c(Cl)c(CNc3ccc(C(=O)N[C@@H](CC(=O)O)C(=O)O)cc3)ccc2n1` [Chlorasquin], the “Response … collaterally sensitive” value in the data set with L1210/MP(III) (mouse, in vivo) was “Chlorasquin”.
In the case of `Nc1nc2nc[nH]c2c(=S)[nH]1` [Thioguanine], the “Response … as parent line” value with P815-E176 (setting [13]) was “Thioguanine”.
In the case of `Nc1ncn([C@@H]2O[C@H](CO)[C@@H](O)[C@@H]2O)c(=O)n1` [AAC, Arabinosyl-5-azacytosine], in data set [7], the “CSF clearance exceeds the rate of CSF bulk flow” value was 5 fold and the “greater CSF drug exposure, intrathecal or intraventricular versus systemic” value is on record as 50 fold. In data set [7] (200 mg/kg), the “area under the CSF concentration x time curve, intraventricular 10 mg versus intravenous 200 mg/kg” value is “fifty fold” and the “peak CSF concentration, intraventricular 10 mg versus intravenous 200 mg/kg” value is given as “one hundred”. Moreover, the CSF clearance in [7] (icv or intrathecal, 10 mg) is 0.2 mL/min.
Take Neocarzinostatin: the “Response … collaterally sensitive” value in the data set on L1210/MP(III) (mouse, in vivo) is given as “collateral sensitivity; also recorded: Neocarzinostatin”.
For `CO[C@@]12[C@H](COC(N)=O)C3=C(C(=O)C(C)=C(N)C3=O)N1C[C@@H]1N[C@@H]12` [mitomycin C], in the data set on L1210/MP(III) (mouse, in vivo), the “Response … collaterally sensitive” value is on record as “collaterally sensitive”.
For `O=c1cnn([C@@H]2O[C@H](CO)[C@@H](O)[C@H]2O)c(=O)[nH]1` [Compound 6-Azauridine, 6-Azauridine], the “Response … Cross-resistant” value in the data set with Ehrlich ascites (AZU 1) is 6-Azauridine; in the data set with Ehrlich ascites (AZU 1) (listed as 6-azauridine), “cross-resistant”.
On to `CN(Cc1cnc2nc(N)nc(N)c2n1)c1ccc(C(=O)N[C@@H](CCC(=O)O)C(=O)O)cc1` [Methotrexate], for which the “Response … collaterally sensitive” value in the data set on L1210/MP(III) (setting [11]) was “collaterally sensitive”. Moreover, the “Response … as parent line” value in the data set with L5178Y/ara-C (L5178Y/ara-C) is recorded as “Methotrexate”; in the data set on L1210 TG/R (setting [12]), “Methotrexate”; in the data set on L1210 TG/R (Thioguanine-resistant L1210 TG/R, listed as methotrexate) it was “not altered”; in the data set on P815-E176 (setting [13]), “Methotrexate”.
With `O=NN(CCCl)C(=O)NCCCl` [BCNU, 1,3-bis(2-chloroethyl)-1-nitrosourea], the “Response … as parent line” value in the data set with L1210/CA is reported as “BCNU”.
As to `NC(=S)NN=Cc1ccccn1` [TSC, pyridine-2-carboxaldehyde thiosemicarbazone], the “cross-resistance” value in data set [4] (several other ara-C-resistant neoplasms) is “no cross-resistance”. The “Response … as parent line” value with L1210/ara-C (L1210/ara-C (Schabel et al., 1971)) is “Guanazole TSC”.
In the case of `S=P(N1CC1)(N1CC1)N1CC1` [Thio-TEPA, triethylenethiophosphoramide], in the data set on L1210 TG/R (mouse, in vivo), the “Response … collaterally sensitive” value was “Thio-TEPA”. Further, the “Response … Cross-resistant” value with P815-E176 (in vivo) is recorded as “cross-resistance; also recorded: Thio-TEPA”.
Regarding `O=P1(N(CCCl)CCCl)NCCCO1` (stereo not shown) [Cytoxan], the “Response … as parent line” value is “Cytoxan” in the data set with L5178Y/ara-C (in vivo); “no change in response; also recorded: Cytoxan” in the data set with L1210 TG/R (mouse, in vivo); “no change in response; also recorded: Cytoxan” in the data set with P815-E176 (in vivo).
As for `C#C[C@@]1(O)[C@@H](CO)O[C@@H](n2ccc(=O)[nH]c2=O)[C@@H]1O` [EUrd, 1-(3-C-ethynyl-beta-D-ribo-pentofuranosyl)uracil], the half-inhibitory concentration (IC50) in the data set on mouse leukemia L1210 is 130 nM; in data set [8], 29 nM. Also, the 1050 values entry in [9] is “nanomolar to micromolar range”. In addition, the “human tumors with potent inhibition” value in data set [10] is recorded as 8 of 11.
As for `Cc1c(CNc2ccc(C(=O)N[C@@H](CC(=O)O)C(=O)O)cc2)ccc2ncnc(N)c12` [Methasquin], the “Response … collaterally sensitive” value in the data set on L1210/MP(III) (setting [11]) is given as “Methasquin”.
With `O=c1[nH]c(=O)n([C@H]2C[C@H](O)[C@@H](CO)O2)cc1F` [Compound 5-FUdR], in data set [2], the “incorporation of tritiated TdR into DNA” value is on record as “not altered” and the “levels of tritiated deoxyuridine” value is “reduced”.
As for `Nc1n[nH]c(N)n1` [Guanazole], the “cross-resistance” value in [4] (in vivo) is reported as “no cross-resistance”. Moreover, in the data set with L1210/ara-C (in vivo), the “Response … as parent line” value is given as “Guanazole TSC”.
Turning to `Nc1ncnc2c([C@@H]3O[C@H](CO)[C@@H](O)[C@H]3O)[nH]nc12` [Formycin], the “Response … Cross-resistant” value in the data set with Ehrlich ascites (EAC-R2) was “Formycin”.

B1: L-asparaginase: L-asparaginase, enzyme drug (protein, UniProt P00805 23-348, looked up)
L-asparaginase 2: LPNITILATGGTIAGGGDSATKSNYTVGKVGVENLVNAVPQLKDIANVKGEQVVNIGSQDMNDNVWLTLAKKINTDCDKTDGFVITHGTDTMEETAYFLDLTVKCDKPVVMVGAMRPSTSMSADGPFNLYNAVVTAADKASANRGVLVVMNDTVLDGRDVTKTNTTDVATFKSVNYGPLGYIHNGKIDYQRTPARKHTSDTPFDVSKLNELPKVGIVYNYANASDLPAKALVDAGYDGIVSAGVGNGNLYKSVFDTLATAAKTGTAVVRSSRVPTGATTQDAEVDDAKYGFVASGTLNPQKARVLLQLALTQTKDPQQIQQIFNQY
As to B1, in the data set on L5178Y/ara-C (L5178Y/ara-C), the “Response … Cross-resistant” value was “L-asparaginase” and the “Response … collaterally sensitive” value was “collaterally sensitive”.
